Reference: PubChem BioAssay AID2060910 (Molecular Pharmacology Branch, DTP, NCI, 2025)

System: 242566-281-R-J2-PDC complex spheroid viability
Experiment: Anticancer human tumor 242566-281-R-J2-PDC patient-derived pancreatic carcinoma cell line growth inhibition [RAS]
Conditions: for IC50: curve of first compound; for viability, T/C: stronger effect = lower value; active means viability on the fitted dose curve at most 10% of control; inactive means the rest
Outline: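 Agents were tested in combination matrices in half-log decrements from a top concentration at or near clinical Cmax (10 microM if undetermined). Targets were multi-cell spheroids of tumour lines plus HUVEC and MSC stromal cells.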

[1] = second compound 0.000949 µM, first compound 0.0316 µM
[2] = second compound 0.000949 µM, first compound 0.1 µM
[3] = second compound 0.000949 µM, first compound 0.316 µM
[4] = second compound 0.000949 µM, first compound 1 µM
[5] = second compound 0.000949 µM, first compound 3.16 µM
[6] = second compound 0.000949 µM, first compound 10 µM
[7] = second compound 0.003 µM, first compound 0.0316 µM
[8] = second compound 0.003 µM, first compound 0.1 µM
[9] = second compound 0.003 µM, first compound 0.316 µM
[10] = second compound 0.003 µM, first compound 1 µM
[11] = second compound 0.003 µM, first compound 3.16 µM
[12] = second compound 0.003 µM, first compound 10 µM
[13] = second compound 0.00949 µM, first compound 0.0316 µM
[14] = second compound 0.00949 µM, first compound 0.1 µM
[15] = second compound 0.00949 µM, first compound 0.316 µM
[16] = second compound 0.00949 µM, first compound 1 µM
[17] = second compound 0.00949 µM, first compound 3.16 µM
[18] = second compound 0.00949 µM, first compound 10 µM
[19] = second compound 0.03 µM, first compound 0.0316 µM
[20] = second compound 0.03 µM, first compound 0.1 µM
[21] = second compound 0.03 µM, first compound 0.316 µM
[22] = second compound 0.03 µM, first compound 1 µM
[23] = second compound 0.03 µM, first compound 3.16 µM
[24] = second compound 0.03 µM, first compound 10 µM
[25] = second compound 0.0949 µM, first compound 0.0316 µM
[26] = second compound 0.0949 µM, first compound 0.1 µM
[27] = second compound 0.0949 µM, first compound 0.316 µM
[28] = second compound 0.0949 µM, first compound 1 µM
[29] = second compound 0.0949 µM, first compound 3.16 µM
[30] = second compound 0.0949 µM, first compound 10 µM
[31] = second compound 0.3 µM, first compound 0.0316 µM
[32] = second compound 0.3 µM, first compound 0.1 µM
[33] = second compound 0.3 µM, first compound 0.316 µM
[34] = second compound 0.3 µM, first compound 1 µM
[35] = second compound 0.3 µM, first compound 3.16 µM
[36] = second compound 0.3 µM, first compound 10 µM
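Further: spheroids exposed to compound for 7 days before readout.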
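Wherever viability, T/C is given: 100% = DMSO vehicle control wells.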

CC(=O)OC12COC1CC(O)C1(C)C(=O)C(O)C3=C(C)C(OC(=O)C(O)C(NC(=O)OC(C)(C)C)c4ccccc4)CC(O)(C(OC(=O)c4ccccc4)C21)C3(C)C (stereo unspecified) + CCn1c(-c2cccnc2C(C)OC)c2c3cc(ccc31)N1CCOC(CC(NC(=O)C(C(C)C)N(C)C(=O)C3(F)CCN(C(=O)C#CC(C)(C)N(C)C)CC3)C(=O)N3CCCC(N3)C(=O)OCC(C)(C)C2)C1
inactive: viability, T/C [1] 47.2% | viability, T/C [2] 33.6% | viability, T/C [3] 26.5% | viability, T/C [4] 35.8% | viability, T/C [5] 40.1% | viability, T/C [6] 38.8% | viability, T/C [7] 40.7% | viability, T/C [8] 30.1% | viability, T/C [9] 32.4% | viability, T/C [10] 35.7% | viability, T/C [11] 40.7% | viability, T/C [12] 33.9% | viability, T/C [13] 46.7% | viability, T/C [14] 32.3% | viability, T/C [15] 35.8% | viability, T/C [16] 37.7% | viability, T/C [17] 35.9% | viability, T/C [18] 34.9% | viability, T/C [19] 43.2% | viability, T/C [20] 33.9% | viability, T/C [21] 31.8% | viability, T/C [22] 34.6% | viability, T/C [23] 29.3% | viability, T/C [24] 43.4% | viability, T/C [25] 36.9% | viability, T/C [26] 34.5% | viability, T/C [27] 31.4% | viability, T/C [28] 33.2% | viability, T/C [29] 27.9% | viability, T/C [30] 40.3% | viability, T/C [31] 26.3% | viability, T/C [32] 27% | viability, T/C [33] 26.2% | viability, T/C [34] 20.2% | viability, T/C [35] 27% | viability, T/C [36] 29.4%
< 31.6 nM: IC50 (second compound 0.000949 µM) | IC50 (second compound 0.003 µM) | IC50 (second compound 0.00949 µM) | IC50 (second compound 0.03 µM) | IC50 (second compound 0.0949 µM) | IC50 (second compound 0.3 µM)

NC1c2ccccc2OC12CCN(c1cnc3c(N4CCCc5ncccc54)n[nH]c3n1)CC2 (stereo unspecified) + CCn1c(-c2cccnc2C(C)OC)c2c3cc(ccc31)N1CCOC(CC(NC(=O)C(C(C)C)N(C)C(=O)C3(F)CCN(C(=O)C#CC(C)(C)N(C)C)CC3)C(=O)N3CCCC(N3)C(=O)OCC(C)(C)C2)C1
1120 nM: IC50 (second compound 0.0949 µM)
1850 nM: IC50 (second compound 0.03 µM)
inactive: viability, T/C [1] 89.6% | viability, T/C [2] 80.3% | viability, T/C [3] 54.3% | viability, T/C [4] 64.5% | viability, T/C [5] 57.4% | viability, T/C [6] 28.6% | viability, T/C [7] 92.4% | viability, T/C [8] 76.2% | viability, T/C [9] 62.7% | viability, T/C [10] 62.4% | viability, T/C [11] 54.4% | viability, T/C [12] 25.5% | viability, T/C [13] 82.3% | viability, T/C [14] 77.1% | viability, T/C [15] 69.1% | viability, T/C [16] 64.6% | viability, T/C [17] 51.9% | viability, T/C [18] 28.3% | viability, T/C [19] 91% | viability, T/C [20] 81.3% | viability, T/C [21] 69.8% | viability, T/C [22] 59.6% | viability, T/C [23] 41.1% | viability, T/C [24] 36.8% | viability, T/C [25] 75.1% | viability, T/C [26] 71.7% | viability, T/C [27] 62% | viability, T/C [28] 55% | viability, T/C [29] 33.3% | viability, T/C [30] 26.5% | viability, T/C [31] 68.2% | viability, T/C [32] 56.4% | viability, T/C [33] 52.8% | viability, T/C [34] 38.9% | viability, T/C [35] 33.5% | viability, T/C [36] 21.1%
3210 nM: IC50 (second compound 0.00949 µM)
2040 nM: IC50 (second compound 0.003 µM)
2280 nM: IC50 (second compound 0.000949 µM)
329 nM: IC50 (second compound 0.3 µM)

Nc1ccn(C2OC(CO)C(O)C2(F)F)c(=O)n1 (stereo unspecified) + CCn1c(-c2cccnc2C(C)OC)c2c3cc(ccc31)N1CCOC(CC(NC(=O)C(C(C)C)N(C)C(=O)C3(F)CCN(C(=O)C#CC(C)(C)N(C)C)CC3)C(=O)N3CCCC(N3)C(=O)OCC(C)(C)C2)C1
67.9 nM: IC50 (second compound 0.03 µM)
75.3 nM: IC50 (second compound 0.0949 µM)
72.2 nM: IC50 (second compound 0.003 µM)
53 nM: IC50 (second compound 0.000949 µM)
50.5 nM: IC50 (second compound 0.3 µM)
inactive: viability, T/C (second compound 0.000949 µM, first compound 0.00316 µM) 114% | viability, T/C (second compound 0.000949 µM, first compound 0.01 µM) 88% | viability, T/C [1] 50.5% | viability, T/C [2] 45.3% | viability, T/C [3] 23.3% | viability, T/C [4] 11.2% | viability, T/C (second compound 0.003 µM, first compound 0.00316 µM) 104% | viability, T/C (second compound 0.003 µM, first compound 0.01 µM) 87.2% | viability, T/C [7] 71.2% | viability, T/C [8] 42% | viability, T/C [9] 21.2% | viability, T/C [10] 11.6% | viability, T/C (second compound 0.00949 µM, first compound 0.00316 µM) 104% | viability, T/C (second compound 0.00949 µM, first compound 0.01 µM) 92.3% | viability, T/C [13] 81.2% | viability, T/C [14] 46.6% | viability, T/C [15] 21.6% | viability, T/C [16] 13.2% | viability, T/C (second compound 0.03 µM, first compound 0.00316 µM) 101% | viability, T/C (second compound 0.03 µM, first compound 0.01 µM) 96% | viability, T/C [19] 68.5% | viability, T/C [20] 41.9% | viability, T/C [21] 16.4% | viability, T/C [22] 12% | viability, T/C (second compound 0.0949 µM, first compound 0.00316 µM) 86.4% | viability, T/C (second compound 0.0949 µM, first compound 0.01 µM) 87.1% | viability, T/C [25] 64.7% | viability, T/C [26] 49.2% | viability, T/C [27] 14.1% | viability, T/C [28] 13.4% | viability, T/C (second compound 0.3 µM, first compound 0.00316 µM) 91.7% | viability, T/C (second compound 0.3 µM, first compound 0.01 µM) 81.8% | viability, T/C [31] 65.6% | viability, T/C [32] 28.4% | viability, T/C [33] 15.5% | viability, T/C [34] 10.1%
90.1 nM: IC50 (second compound 0.00949 µM)
